Experimental data: patent US7868135B2, “Compositions of lipopeptide antibiotic derivatives and methods of use thereof” (priority 2003, dated 2011)
Starred links: 1 amine or outer side, 2 acyl side, 3 side chain; linkers in the order of their positions; H or OH if unused. Positions of bridges follow the written chain, without caps; N, C: chain ends. Non-standard residues stand in square brackets, D forms with d. Residues, ends and D or L forms follow the SMILES beside them. ξ: configuration not given here. *: point of attachment. ξAbu(βξ-NH2) = CC(N[*:3])C(N[*:1])C(=O)[*:2]; X7 = CC(NC(=O)C1CCNCC1)C(N[*:1])C(=O)[*:2]; Pentadecanoyl = CCCCCCCCCCCCCCC(=O)*; ξAsp(βξ-Me) = CC(C(=O)O)C(N)C(=O)O; X12 = O=C(c1ccc(NN[*:1])cc1)[*:2]; ξAbu(3ξ-NH2) = CC(N)C(N)C(=O)O; Lauroyl = CCCCCCCCCCCC(=O)*; Pip = O=C(O)[CH]1CCCCN1

System: Staphylococcus aureus (MSSA)
Details: 24 h
Procedure: (“Approved Standard M7-A3”).
The antimicrobial lipopeptide derivatives described herein were tested for antimicrobial activity against Gram-positive bacteria as follows. The minimum inhibitory concentrations (MIC) of the antimicrobial lipopeptide derivatives of the invention were determined using NCCLS guidelines M7-A6 (2003) with a slight modification in that doubling serial dilutions were used to dilute the test compounds. The broth phase microdilution method was used. Isolated colonies of Staphylococcus aureus (MSSA) from an 18-24 hour blood agar plate cultures were used to inoculate cation adjusted Mueller-Hinton broth (CAMHB) supplemented with 0.625 mM calcium. […] A negative control containing media alone and a positive growth control containing bacteria with media alone were also included. MICs were determined after incubating the plates at about 37° C. for 24 hours. […] In Tables 1 to 16, R is the core cyclic peptide of amphomycin or aspartocin, which can be in the form of a β-isomer, an anhydro, a dianhydro, or any combination thereof. […] Furthermore, a person of skill in the art will appreciate that all the pounds, or groups of compounds, derived from the various combinations of and substituents shown in Tables 1 to 16, are disclosed by the present the same extent as if each compound or group of compounds was set forth individually.

Structure (SMILES)	MIC
CCCCCCCCCCCCCCC(=O)NC(CC(=O)O)C(=O)NC1C(=O)N2CCCCC2C(=O)NC(C(C)C(=O)O)C(=O)NC(CC(=O)O)C(=O)NCC(=O)NC(CC(=O)O)C(=O)NCC(=O)NC(C(C)NC(=O)[C@@H](N)CC(C)C)C(=O)NC(C(C)C)C(=O)N2CCCC2C(=O)NC1C (stereo partly shown) [Compound 5, C15-Amphomycin-9-Leu]	16 to 32 µg/mL
CCCCCCCCCC(=O)NC(CC(=O)O)C(=O)NC1C(=O)N2CCCCC2C(=O)NC(C(C)C(=O)O)C(=O)NC(CC(=O)O)C(=O)NCC(=O)NC(CC(=O)O)C(=O)NCC(=O)NC(C(C)N)C(=O)NC(C(C)C)C(=O)N2CCCC2C(=O)NC1C (stereo not shown) [Compound 6, C10-Amphomycin]	32 to 64 µg/mL
CCCCCCCCCCC(=O)NC(CC(=O)O)C(=O)NC1C(=O)N2CCCCC2C(=O)NC(C(C)C(=O)O)C(=O)NC(CC(=O)O)C(=O)NCC(=O)NC(CC(=O)O)C(=O)NCC(=O)NC(C(C)N)C(=O)NC(C(C)C)C(=O)N2CCCC2C(=O)NC1C (stereo not shown) [Compound 7, C11-Amphomycin]	32 to 64 µg/mL
CCCCCCCCCCCC(=O)NC(CC(=O)O)C(=O)NC1C(=O)N2CCCCC2C(=O)NC(C(C)C(=O)O)C(=O)NC(CC(=O)O)C(=O)NCC(=O)NC(CC(=O)O)C(=O)NCC(=O)NC(C(C)N)C(=O)NC(C(C)C)C(=O)N2CCCC2C(=O)NC1C (stereo not shown) [Compound 8, C12-Amphomycin]	4 to 8 µg/mL
CCCCCCCCCCCCC(=O)NC(CC(=O)O)C(=O)NC1C(=O)N2CCCCC2C(=O)NC(C(C)C(=O)O)C(=O)NC(CC(=O)O)C(=O)NCC(=O)NC(CC(=O)O)C(=O)NCC(=O)NC(C(C)N)C(=O)NC(C(C)C)C(=O)N2CCCC2C(=O)NC1C (stereo not shown) [Compound 9, C13-Amphomycin]	0.5 to 1 µg/mL
CCCCCCCCCCCCCC(=O)NC(CC(=O)O)C(=O)NC1C(=O)N2CCCCC2C(=O)NC(C(C)C(=O)O)C(=O)NC(CC(=O)O)C(=O)NCC(=O)NC(CC(=O)O)C(=O)NCC(=O)NC(C(C)N)C(=O)NC(C(C)C)C(=O)N2CCCC2C(=O)NC1C (stereo not shown) [Compound 10, C14-Amphomycin]	1 µg/mL
CCCCCCCCCCCCCCCCCC(=O)NC(CC(=O)O)C(=O)NC1C(=O)N2CCCCC2C(=O)NC(C(C)C(=O)O)C(=O)NC(CC(=O)O)C(=O)NCC(=O)NC(CC(=O)O)C(=O)NCC(=O)NC(C(C)N)C(=O)NC(C(C)C)C(=O)N2CCCC2C(=O)NC1C (stereo not shown) [Compound 13, C18-Amphomycin]	2 µg/mL
CCCCCCCCCCOc1ccc(C(=O)NC(CC(=O)O)C(=O)NC2C(=O)N3CCCCC3C(=O)NC(C(C)C(=O)O)C(=O)NC(CC(=O)O)C(=O)NCC(=O)NC(CC(=O)O)C(=O)NCC(=O)NC(C(C)N)C(=O)NC(C(C)C)C(=O)N3CCCC3C(=O)NC2C)cc1 (stereo not shown) [Compound 18, CH3—(CH2)9—O-p-Ph-C(═O)-Amphomycin]	0.5 to 1 µg/mL
CCCCCCCCOc1ccc(C(=O)NC(CC(=O)O)C(=O)NC2C(=O)N3CCCCC3C(=O)NC(C(C)C(=O)O)C(=O)NC(CC(=O)O)C(=O)NCC(=O)NC(CC(=O)O)C(=O)NCC(=O)NC(C(C)N)C(=O)NC(C(C)C)C(=O)N3CCCC3C(=O)NC2C)cc1 (stereo not shown) [Compound 19, CH3—(CH2)7—O-p-Ph-C(═O)-Amphomycin]	0.5 µg/mL
CCCCCCCCCCCC(=O)NNc1ccc(C(=O)NC(CC(=O)O)C(=O)NC2C(=O)N3CCCCC3C(=O)NC(C(C)C(=O)O)C(=O)NC(CC(=O)O)C(=O)NCC(=O)NC(CC(=O)O)C(=O)NCC(=O)NC(C(C)N)C(=O)NC(C(C)C)C(=O)N3CCCC3C(=O)NC2C)cc1 (stereo not drawn) [Compound 21, C12-p-Hydrazinobenzoic Acid-Amphomycin] (Lauroyl-[X12]D[ξAbu(βξ-NH2)][Pip][ξAsp(βξ-Me)]DGDG[ξAbu(3ξ-NH2)]VP; lactam 3-C; configuration not given here)	1 µg/mL
CCCCCCCCCCCCCCC(=O)NC(CC(=O)O)C(=O)NC1C(=O)N2CCCCC2C(=O)NC(C(C)C(=O)O)C(=O)NC(CC(=O)O)C(=O)NCC(=O)NC(CC(=O)O)C(=O)NCC(=O)NC(C(C)NC(=O)CCCCCN)C(=O)NC(C(C)C)C(=O)N2CCCC2C(=O)NC1C (stereo not shown) [Compound 25, C15-Amphomycin-9-Ahx]	1 µg/mL
CCCCCCCCCCCCCCC(=O)NC(CC(=O)O)C(=O)NC1C(=O)N2CCCCC2C(=O)NC(C(C)C(=O)O)C(=O)NC(CC(=O)O)C(=O)NCC(=O)NC(CC(=O)O)C(=O)NCC(=O)NC(C(C)NC(=O)C2CCNCC2)C(=O)NC(C(C)C)C(=O)N2CCCC2C(=O)NC1C (stereo not drawn) [Compound 26, C15-Amphomycin-9-Ina] (Pentadecanoyl-D[ξAbu(βξ-NH2)][Pip][ξAsp(βξ-Me)]DGDG[X7]VP; lactam 2-C; configuration not given here)	4 µg/mL
CCCCCCCCCCCCCCC(=O)NC(CC(=O)O)C(=O)NC1C(=O)N2CCCCC2C(=O)NC(C(C)C(=O)O)C(=O)NC(CC(=O)O)C(=O)NCC(=O)NC(CC(=O)O)C(=O)NCC(=O)NC(C(C)NC(=O)[C@@H](N)Cc2ccc([N+](=O)[O-])cc2)C(=O)NC(C(C)C)C(=O)N2CCCC2C(=O)NC1C (stereo partly shown) [Compound 27, C15-Amphomycin-9-(P—NO2-Phe)]	32 to 64 µg/mL
CCCCCCCCCCCCCCC(=O)NC(CC(=O)O)C(=O)NC1C(=O)N2CCCCC2C(=O)NC(C(C)C(=O)O)C(=O)NC(CC(=O)O)C(=O)NCC(=O)NC(CC(=O)O)C(=O)NCC(=O)NC(C(C)NC(=O)CNC(=O)[C@@H](N)Cc2ccccc2)C(=O)NC(C(C)C)C(=O)N2CCCC2C(=O)NC1C (stereo partly shown) [Compound 28, C15-Amphomycin-9-Gly-Phe]	2 µg/mL
CCCCCCCCCCCCCCC(=O)NC(CC(=O)O)C(=O)NC1C(=O)N2CCCCC2C(=O)NC(C(C)C(=O)O)C(=O)NC(CC(=O)O)C(=O)NCC(=O)NC(CC(=O)O)C(=O)NCC(=O)NC(C(C)NC(=O)[C@@H](N)CCC(=O)O)C(=O)NC(C(C)C)C(=O)N2CCCC2C(=O)NC1C (stereo partly shown) [Compound 29, C15-Amphomycin-9-Glu]	1 µg/mL
CCCCCCCCCCCCCCC(=O)NC(CC(=O)O)C(=O)NC1C(=O)N2CCCCC2C(=O)NC(C(C)C(=O)O)C(=O)NC(CC(=O)O)C(=O)NCC(=O)NC(CC(=O)O)C(=O)NCC(=O)NC(C(C)NC(=O)[C@@H](N)Cc2ccc(F)cc2)C(=O)NC(C(C)C)C(=O)N2CCCC2C(=O)NC1C (stereo partly shown) [Compound 30, C15-Amphomycin-9-(P—F-Phe)]	32 to 64 µg/mL

The remaining lines, values ahead:

MIC	Structure (SMILES)
1 µg/mL	CCCCCCCCCCCCCCC(=O)NC(CC(=O)O)C(=O)NC1C(=O)N2CCCCC2C(=O)NC(C(C)C(=O)O)C(=O)NC(CC(=O)O)C(=O)NCC(=O)NC(CC(=O)O)C(=O)NCC(=O)NC(C(C)NC(=O)[C@@H](N)CCCCN)C(=O)NC(C(C)C)C(=O)N2CCCC2C(=O)NC1C (single isomer, unassigned) [Compound 129, C15-Amphomycin-9-Lys]
16 µg/mL	CCCCCCCCCCCCCCC(=O)NC(CC(=O)O)C(=O)NC1C(=O)N2CCCCC2C(=O)NC(C(C)C(=O)O)C(=O)NC(CC(=O)O)C(=O)NCC(=O)NC(CC(=O)O)C(=O)NCC(=O)NC(C(C)NC(=O)[C@@H](N)CCCCN)C(=O)NC(C(C)C)C(=O)N2CCCC2C(=O)NC1C (single isomer, unassigned) [Compound 172, C15-Amphomycin-9-Lys]
16 µg/mL	CCCCCCCCCCCCCCC(=O)NC(CC(=O)O)C(=O)NC1C(=O)N2CCCCC2C(=O)NC(C(C)C(=O)O)C(=O)NC(CC(=O)O)C(=O)NCC(=O)NC(CC(=O)O)C(=O)NCC(=O)NC(C(C)NC(=O)[C@@H](N)CC2CCCCC2)C(=O)NC(C(C)C)C(=O)N2CCCC2C(=O)NC1C (stereo partly drawn) [Compound 31, C15-Amphomycin-9-(β-Cha)]
8 µg/mL	CCCCCCCCCCCCCCC(=O)NC(CC(=O)O)C(=O)NC1C(=O)N2CCCCC2C(=O)NC(C(C)C(=O)O)C(=O)NC(CC(=O)O)C(=O)NCC(=O)NC(CC(=O)O)C(=O)NCC(=O)NC(C(C)NC(=O)[C@@H](N)CCc2ccccc2)C(=O)NC(C(C)C)C(=O)N2CCCC2C(=O)NC1C (stereo partly shown) [Compound 32, C15-Amphomycin-9-hPhe]
0.5 to 1 µg/mL	CCCCCCCCCCCCCCC(=O)NC(CC(=O)O)C(=O)NC1C(=O)N2CCCCC2C(=O)NC(C(C)C(=O)O)C(=O)NC(CC(=O)O)C(=O)NCC(=O)NC(CC(=O)O)C(=O)NCC(=O)NC(C(C)NC(=O)CNC(=O)CNC(=O)CN)C(=O)NC(C(C)C)C(=O)N2CCCC2C(=O)NC1C (stereo not drawn) [Compound 33, C15-Amphomycin-9-Gly-Gly-Gly]
32 to 64 µg/mL	CCCCCCCCCCCCCCC(=O)NC(CC(=O)O)C(=O)NC1C(=O)N2CCCCC2C(=O)NC(C(C)C(=O)O)C(=O)NC(CC(=O)O)C(=O)NCC(=O)NC(CC(=O)O)C(=O)NCC(=O)NC(C(C)NC(=O)CCCCCCCCCCN)C(=O)NC(C(C)C)C(=O)N2CCCC2C(=O)NC1C (stereo not shown) [Compound 34, C15-Amphomycin-9-C(═O)—(CH2)10—NH2]
8 to 16 µg/mL	CCCCCCCCCCCCCCC(=O)NC(CC(=O)O)C(=O)NC1C(=O)N2CCCCC2C(=O)NC(C(C)C(=O)O)C(=O)NC(CC(=O)O)C(=O)NCC(=O)NC(CC(=O)O)C(=O)NCC(=O)NC(C(C)NC(=O)[C@@H](N)CC#N)C(=O)NC(C(C)C)C(=O)N2CCCC2C(=O)NC1C (stereo partly drawn) [Compound 35, C15-Amphomycin-9-(β-Cyano-Ala)]
8 to 16 µg/mL	CCCCCCCCCCCCCCC(=O)NC(CC(=O)O)C(=O)NC1C(=O)N2CCCCC2C(=O)NC(C(C)C(=O)O)C(=O)NC(CC(=O)O)C(=O)NCC(=O)NC(CC(=O)O)C(=O)NCC(=O)NC(C(C)NC(=O)[C@@H](N)[C@@H](C)CC)C(=O)NC(C(C)C)C(=O)N2CCCC2C(=O)NC1C (stereo partly shown) [Compound 36, C15-Amphomycin-9-Ile]

Same assay, conditions: S. aureus (MSSA), CAMHB supplemented with 0.625 mM calcium, 24 hours at about 37° C.; a range = compound tested multiple times

Structure (SMILES)	MIC
CCCCCCCCCCCCCC(=O)NC(CC(=O)O)C(=O)NC1C(=O)N2CCCCC2C(=O)NC(C(C)C(=O)O)C(=O)NC(CC(=O)O)C(=O)NCC(=O)NC(CC(=O)O)C(=O)NCC(=O)NC(C(C)NC(=O)CN)C(=O)NC(C(C)C)C(=O)N2CCCC2C(=O)NC1C (stereo not shown) [Compound 23, C14-Amphomycin-9-Gly]	23/8-16 μg/mL
